Laboratory results as given in US5866576A, “Epoxide-containing compounds” (Cell Therapeutics, Inc., priority 1997, dated 1999).
pIC50: −log10 of the molar value.

Columns and labels:
[1] = tested on: LPS-induced TNF release in whole human blood; test: LPS-induced TNF release in whole human blood (FIG. 14); format: cell-based; conditions: LPS 10 ng/ml, read-out: inhibition of TNF-α induction
Procedure: This example illustrates inhibitive effects of the inventive compounds on LPS-induced TNF release. Data collected is reported as percent inhibition of LPS induced TNF release in whole human blood as compared with control values of TNF release.
In this assay, whole blood was collected from a healthy human donor into Vacutainer tubes containing ACD citrate anti-coagulant. Compounds to be tested were diluted in RPMI medium and added (5 μl) to tubes containing whole blood (225 μl). The tubes were mixed and incubated for a maximum of 1 hour at 37° C. LPS Salmonella abortus equi was diluted in RPMI and added to samples at 20 μl per tube (10 ng/ml final concentration). The prepared tubes were mixed and incubated for 4-6 hours at 37° C. The reaction was terminated by adding 750 μl of RPMI to each tube, then centrifuged to remove cells. Supernatants are collected and stored overnight at 4° C. Supernatant samples are assayed for TNF release using commercial immunoassay kits.

human stromal cells = test: PDGF-induced proliferation of human stromal cells (FIG. 4); format: cell-based; conditions: PDGF-BB 50 ng/ml
Procedure: (§1) Human stromal cells were starved in serum-free media for 24 hours and then stimulated with 50 ng/ml of PDGF-BB. The drugs were added at various indicated concentrations one hour prior to PDGF stimulation. Tritiated thymidine was added for 24 hrs at the time of PDGF stimulation to measure cellular proliferation. Background counts were approximately 5% of control levels.
as §1, with “This example illustrates a comparison of inventive compounds nos. 1605, 1808 and 1906 on PDGF-induced (platelet derived growth factor) proliferation of human stromal cells. Human” for “Human”, “hours” for “hrs”

Ramos B-cell tumor line = test: B-cell proliferation, Ramos line stimulated with anti-mu or PMA (FIG. 3); format: cell-based, human; conditions: 250 μM, anti-mu or PMA (5 nM)
Procedure: A Ramos […] tumor line was treated with 250 μM 1808 or 1605 for one hour prior to stimulation of proliferation with anti-mu antibody or phorbol myristic acid (PMA, 5 nM). One day later, proliferation was measured with tritiated thymidine.
This example illustrates a comparison of inventive compounds nos. 1605 and 1808 for inhibition of B-cell proliferation. A Ramos B-cell tumor line was treated with 250 μM 1808 or 1605 for one hour prior to stimulation of proliferation with anti-mu antibody or PMA (5 nM). One day later, proliferation was measured with tritiated thymidine.

[2] = tested on: U937 cells; human umbilical vein endothelial cells (HUVEC); test: adhesion of U937 cells to TNF-α activated HUVEC (FIG. 5); format: cell-based; conditions: TNF-α 20 ng/ml, 12 hours
Procedure: HUVEC cells were activated with 20 ng/ml of TNF for 12 hrs. Drug was added to each culture (except for controls) one hour prior to adding TNF. U937 cells, preloaded with the fluorescent dye BCECF, were added to each culture well and then washed. Cell adhesion was determined on a fluorescence plate reader, showing a decrease in cell adhesion caused by all three drugs in a dose dependent fashion.
This example illustrates a comparison of the effects of inventive compounds nos. 1605, 1808 and 1906 to inhibit adhesion of U937 cells to activated human umbilical vein endothelial cells (HUVEC). HUVEC cells (4000/ well, seeded 72 hours in advance) were activated with 20 ng/ml of TNF-α for 12 hours. Drug was added to the HUVEC (except for controls) one hour prior to adding TNF-α. U937 cells, preloaded with the fluorescent dye BCECF, were added to each culture well and then washed twice with PBS. Cell adhesion was determined by measuring the fluorescence of adhering U937 cells on a fluorescence plate reader.

[3] = tested on: vascular cell adhesion molecule-1 (VCAM) in human umbilical vein endothelial cells (HUVEC); test: cell surface expression of VCAM in TNF-α stimulated HUVEC, flow cytometry (FIG. 6); format: cell-based; conditions: TNF-α 20 ng/ml, 20 hrs
Procedure: The HUVEC cells were stimulated with 20 ng/ml TNF-α for 20 hrs and then stained for immunofluorescence using a monoclonal antibody recognizing VCAM, followed by a goat anti-mouse antibody conjugated to phycoerythrin. The cells were analyzed for antibody binding using flow cytometry.
This example illustrates the effects of inventive compounds nos. 1605, 1808 and 1906 to inhibit cell surface expression of vascular cell adhesion molecule-1 (VCAM) in human umbilical vein endothelial cells (HUVEC). The HUVEC cells were stimulated with 20 ng/ml TNF-α for 20 hrs and then stained for immunofluorescence using a monoclonal antibody recognizing VCAM, followed by a goat anti-mouse antibody conjugated to phycoerythrin. The cells were analyzed for antibody binding using flow cytometry.

thymocytes [4] = test: thymocyte proliferation co-stimulated with Con A and/or IL-1α (FIG. 2); format: cell-based, Balb/C mice; conditions: three dose levels
Procedure: The thymocytes were obtained from normal female Balb/C mice and stimulated with Concanavalin A (Con A) and/or interleukin-1 alpha (L-1α). Drugs were added to the cell cultures two hours before activation with Con A and/or IL-1α.
This example illustrates a comparison of three dose levels of inventive compounds nos. 1808 and 1906 and no drug control to inhibit thymocyte proliferation. The thymocytes were obtained from normal female Balb/C mice and co-stimulated with Concanavalin A (Con A) and/or IL-1α (interleukin-1 alpha). The thymuses were dissociated and plated into 96-well plates at a density of 2×10^5 cells/well. Dilutions of Con A and/or IL-1α were added to the wells and the cells were incubated for 4 days at 37° C. Drugs were added to the cell cultures two hours before activation with Con A and/or IL-1α. On day 4, the cells were pulsed with tritiated thymidine and allowed to incubate an additional 4 hrs. The cells were harvested and counted.

thymocytes [5] = test: murine thymocyte proliferation assay co-stimulated by ConA and IL-2 (FIGS. 7A-7E); format: cell-based, Balb/C mice; conditions: Mus musculus, FIG. 7A
From the text: This example illustrates dose response curves used to generate 50% inhibition concentrations (IC50) for inventive compounds nos. 1410, 1439, 1541, 1553, 1553S, 1560, 1565, 2548R, 2548S and 2562 in a murine thymocyte proliferation assay, co-stimulated by Concanavalin A (ConA) and interleukin-2 alpha (IL-2). ConA, used to activate the T-cell receptor (TCR), along with IL-2 co-stimulation, induces T-cell proliferation and differentiation. Thymuses, obtained from normal, female Balb/C mice, were dissociated and plated into 96-well plates at a density of 2×10^5 cells/well. ConA (0.25 mg/ml) and IL-2 (15 U/ml) were added to the wells. The cells were incubated for 4 days at 37° C. On day 4, the cells were pulsed with tritiated thymidine and incubated for an additional 4 hours. The amount of tritiated thymidine incorporated by the harvested cells was determined in a liquid scintillation counter. Doses of inventive compounds (shown in FIGS. 7A-7E) were added two hours prior to ConA and IL-2 activation. Background counts were less than 200 cpm. Results obtained, illustrate the ability of the inventive compounds to inhibit thymocyte proliferation and activation. In FIG. 7A, inventive compounds nos. […] FIG. 7B presents additional data for compound no. 1410 and 1553S in this assay. […] FIG. 7C reports assay results for inventive compounds nos. 1439, 1541, 1560 and 1565. […] FIGS. 7D and 7E illustrate assay results for inventive compounds nos. 1541, 1553, 1560 and 1565 (FIG. 7D) and 2562, […] (FIG. 7E). As is true of other inventive compounds tested, all these compounds represented in FIGS. 7D and 7E inhibit thymocyte proliferation. […] 1541, 1553, 1560, 1565, 2562, 2548R and 2548S, respectively.

[6] = tested on: PBMC (peripheral blood mononuclear cells); test: two-way mixed lymphocyte reaction, PBMC (FIG. 1); format: cell-based; conditions: for potency in mixed lymphocyte reaction compared with PTX: PTX not shown on graph
From the text: This example illustrates the effects of inventive compounds nos. 1605, 1808 and 1906 as immune modulators in a mixed lymphocyte reaction. […] 1605, 1808 and 1906.

Balb/3T3 cells [7] = test: Balb/3T3 cytotoxicity assay (BCECF-AM); format: cell-based; conditions: FIGS. 8C, 8D
Procedure: In conjuction with the Balb/3T3 proliferation assay conducted above, a Balb/3T3 cytotoxicity assay was conducted to determine that the inhibition on proliferation was not due to cytotoxic effects. This assay is similar to the assay decribed above except tritiated thymidine was not added and after 18-24 hours incubation with PDGF/BB and a lOuM solution of 2,7-bis-(2-carboxyethyl)-5(and-6)carboxyflouresceinacetoxymethyl ester (BCECF-AM) was added for 30 minutes at 37° C. (BCECF is a compound that when cleaved by esterases, yields a fluorescent product in viable cells only, therefore providing a measure of viable cell numbers). Following sufficient incubation, BCECF is replaced with PBS and the plate examined with flourescence in a Millipore "cytofluor." The data is compiled and plotted.

Balb/3T3 cells [8] = test: PDGF-stimulated Balb/3T3 cell proliferation; format: cell-based; conditions: FIGS. 8A (1409), 8B (1560); PDGF/BB
Procedure: Balb/3T3 cells respond vigorously to PDGF stimulation, and are useful in vitro models for further study of PDGF-induced proliferation. Disregulated PDGF-proliferative response has been linked to a variety of diseases, including, e.g., restenosis, atherosclerosis, fibrosis, and tumor cell angiogenesis.
Balb/3T3 cells were maintained in exponential growth. The cells were removed from a flask with EDTA and plated into 96 well plates at 3000 cells/well. After 48 hours, the media was removed, the cells washed once with PBS and serum free media and the cultures allowed to rest for a 24 hour period. Inventive compounds were added to the wells containing media and Balb/3T3 cells one hour prior to incubation with PDGF/BB, added at constant 10 μM concentrations along with 1 μ Ci 3-H-thymidine dye. Cells were subsequently incubated for 18-24 hours, harvested, and incorporated thymidine assessed on a Packard Topcount to determine degree of cell proliferation. Data obtained in this assay was used to determine experimental 50% inhibition concentrations for the inventive compounds tested.

SMILES	inhibition at 50 µM [1] [%]	inhibition of PDGF-induced proliferation (human stromal cells)	inhibition of B-cell proliferation (Ramos B-cell tumor line)	inhibition of U937 cell adhesion to HUVEC [2]	mean fluorescence (VCAM surface expression) [3]	inhibition of thymocyte proliferation (thymocytes [4])	pIC50 (thymocytes [5])	activity in mixed lymphocyte reaction (immune modulation) [6]	potency in mixed lymphocyte reaction compared with PTX [6]	cytotoxic effects (Balb/3T3 cells [7])	inhibition of Balb/3T3 proliferation (Balb/3T3 cells [8])
CCCCCCCCC1OC1CCCCCCCCn1c(=O)c2c(ncn2C)n(C)c1=O (centres unmarked) [Compound 2541, 1-(9,10-Oxidooctadecyl)-3,7-dimethylxanthine]	25										
Cn1ccc(=O)n(CCCCC2CO2)c1=O (centres unmarked) [Compound 1808, 3-(5,6-Oxidohexyl)-1-methyluracil]		inhibited PDGF-induced stimulation in a dose response fashion	inhibited proliferation	decrease in cell adhesion induced by TNF-α in a dose dependent fashion	Mean fluorescence levels were decreased	inhibited thymocyte proliferation is a dose-dependent fashion	4.00	demonstrated activity	more potent than PTX		
Cn1c(=O)n(CCCCCCCC2CO2)c(=O)c2c1ncn2COC(=O)C(C)(C)C (centres unmarked) [Compound 1409, 1-(8,9-Oxidononyl)-3-methyl-7-methylpivaloylxanthine]										without exhibiting cytotoxic effects	inhibit Balb/3T3 proliferation
Cc1cn(C)c(=O)n(CCCCC2CO2)c1=O (centres unmarked) [Compound 1906, 3-(5,6-Oxidohexyl)-1-methylthymine]		inhibited PDGF-induced stimulation in a dose response fashion		decrease in cell adhesion induced by TNF-α in a dose dependent fashion	Mean fluorescence levels were decreased	inhibited thymocyte proliferation is a dose-dependent fashion		demonstrated activity	more potent than PTX		
O=C1CCCC(=O)N1CCCCC1CO1 (centres unmarked) [Compound 1605, N-(5,6-Oxidohexyl) glutarimide]		inhibited PDGF-induced stimulation in a dose response fashion	inhibited proliferation	decrease in cell adhesion induced by TNF-α in a dose dependent fashion	Mean fluorescence levels were decreased			demonstrated activity	more potent than PTX		
